Results published in patent publication US6730672B2, “Aminoheterocyclic derivatives as antithrombotic or anticoagulant agents” (Zeneca Limited, priority 1994, dated 2004).

Assays:
[1] = test system: Alderley Park Wistar rats; test: Ex vivo Assay of Anticoagulant Activity (APTT and PT coagulation assays after dosing); format: in vivo; settings: test d), rat
Method: d) An ex vivo Assay of Anticoagulant Activity
The test compound was administered intravenously or orally to a group of Alderley Park Wistar rats. At various times thereafter animals were anaesthetised, blood was collected and APTT and PT coagulation assays analogous to those described hereinbefore were conducted.

[2] = target: human thrombin (Homo sapiens, UniProt P00734); test: Measurement of Thrombin Inhibition (chromogenic substrate S-2238); format: biochemical; settings: test b), read-out: IC50 against thrombin
Description: b) Measurement of Thrombin Inhibition
The procedure of method a) was repeated except that human thrombin (0.005 Units/ml) and the chromogenic substrate S-2238 (KabiVitum AB) were employed.

[3] = test system: Alderley Park Wistar rats; test: In vivo Measurement of Antithrombotic Activity (thromboplastin/stasis-induced vena cava thrombus); settings: test e), rat, 5 mg/kg dose
Method: e) An in vivo Measurement of Antithrombotic Activity
Thrombus formation was induced using an analogous method to that described by Vogel et al., Thromb. Research, 1989, 54, 399-410. A group of Alderley Park Wistar rats was anaesthetised and surgery was performed to expose the vena cava. […] Test compound was administered intravenously or orally. At an appropriate time thereafter tissue thromboplastin (1 ml/kg) was administered into the jugular vein and, after 10 seconds, the two sutures were tightened to induce stasis within the ligated portion of vena cava. After 10 minutes the ligated tissue was excised and the thrombus therein was isolated, blotted and weighed.

[4] = test system: human blood plasma; test: Measurement of Anticoagulant Activity in vitro, activated partial thromboplastin time (APTT) test; format: biochemical; settings: test c)
Method: (§1) c) Measurement of Anticoagulant Activity
(§2) An in vitro assay whereby human venous blood was collected and added directly to a sodium citrate solution (3.2 g/100 ml, 9 parts blood to 1 part citrate solution). Blood plasma was prepared by contrifugation (1000 g, 15 minutes) and stored at 2-4° C. Conventional activated partial thromboplastin time (APTT) and prothrombin time (PT) tests were carried out in the presence of various concentrations of a test compound and the concentration of test compound required to double the clotting time, hereinafter referred to as CT2, was determined. In the APTT test, the test compound, blood plasma and APTT reagent were incubated at 37° C. for 3 minutes. Calcium chloride (0.02M) was added and fibrin formation and the time required for a clot to form were determined. In the PT test, an analogous procedure was followed except that tissue thromboplastin was used in place of APTT reagent.

[5] = target: human Factor Xa (Homo sapiens, UniProt P00742); test: Measurement of Factor Xa Inhibition (chromogenic substrate S-2765); format: biochemical; settings: test a), pH7.5, 37° C., read-out: IC50 against Factor Xa
Sequence of human Factor Xa (P00742 235-488 limits assumed): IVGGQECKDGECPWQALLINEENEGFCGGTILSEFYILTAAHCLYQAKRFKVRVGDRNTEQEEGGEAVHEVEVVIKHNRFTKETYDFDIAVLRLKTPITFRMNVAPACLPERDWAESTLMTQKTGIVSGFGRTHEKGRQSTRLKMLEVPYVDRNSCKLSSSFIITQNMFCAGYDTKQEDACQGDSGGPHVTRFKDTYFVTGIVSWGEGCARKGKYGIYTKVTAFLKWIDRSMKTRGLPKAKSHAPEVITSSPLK
Sequence of human Factor Xa (P00742 41-179 partner limits assumed): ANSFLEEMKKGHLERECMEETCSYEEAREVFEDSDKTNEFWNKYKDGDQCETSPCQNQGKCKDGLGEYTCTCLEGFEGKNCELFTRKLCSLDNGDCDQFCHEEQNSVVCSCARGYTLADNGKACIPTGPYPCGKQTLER
Method: a) Measurement of Factor Xa Inhibition
An in vitro assay system was carried out based on the method of Kettner et al., J. Biol. Chem., 1990, 265, 18289-18297, whereby various concentrations of a test compound were dissolved in a pH7.5 buffer containing 0.5% of polyethylene glycol and incubated at 37° C. with human Factor Xa (0.001 Units/ml, 0.3 ml) for 15 minutes. The chromogenic substrate S-2765 (KabiVitum AB, 20 μM) was added and the mixture was incubated at 37° C. for 20 minutes whilst the absorbance at 405 nm was measured. The maximum reaction velocity (Vmax) was determined and compared with that of a control sample containing no test compound. Inhibitor potency was expressed as an IC50 value.

[6] = test system: human blood plasma; test: Measurement of Anticoagulant Activity in vitro, prothrombin time (PT) test; format: biochemical; settings: test c)
Method: as §1, §2

| SMILES | clotting time following intravenous administration ([1]; 10 mg/kg dose) | IC50 [2] [nM] | thrombus weight following intravenous administration [3] | CT2 (APTT), concentration required to double the clotting time [4] [µM] | IC50 [5] [nM] | CT2 (PT), concentration required to double the clotting time [6] [µM] | clotting time following intravenous administration ([1]; 5 mg/kg dose) | melting point |
| --- | --- | --- | --- | --- | --- | --- | --- | --- |
| O=C(CNS(=O)(=O)c1ccc2ccccc2c1)NC(CNC(=O)C1CCN(c2ccncc2)CC1)C(=O)N1CCCCC1 (stereo not drawn) [Example 1, 2-(2-naphthalenesulphonamido)-N-{1-piperidinocarbonyl-2-[1-(4-pyridyl)-piperidin-4-ylcarbonylamino]ethyl}acetamide] | increased clotting time | > 100000 | reduced thrombus weight | 62 | 300 | 14 | – | – |
| O=C(C1CCN(c2ccncc2)CC1)N1CCN(S(=O)(=O)/C=C/c2ccc(Cl)cc2)CC1 [Example 39, Compound No. 2, 1-[(E)-4-chlorostyrylsulphonyl]-4-[-1-(4-pyridyl)piperidin-4-ylcarbonyl]piperazine] | – | > 100000 | reduced thrombus weight | 1.8 | 12 | 1 | increased clotting time | – |
| O=C(C1CCN(c2ccncc2)CC1)N1CCN(S(=O)(=O)c2ccc3cc(Cl)ccc3c2)CC1 [Example 40, Compound No. 5, 1-(6-chloronaphth-2-ylsulphonyl)-4-[1-(4-pyridyl)piperidin-4-ylcarbonyl]piperazine] | – | 34000 | – | 1.2 | 3 | 0.5 | increased clotting time | – |
| CCOC(=O)C1CN(S(=O)(=O)c2ccc3cc(Cl)ccc3c2)CCN1C(=O)C1CCN(c2ccncc2)CC1 (stereo not drawn) [Example 62, 4-(6-chloronaphth-2-ylsulphonyl)-2-ethoxycarbonyl-1-[1-(4-pyridyl)-piperidin-4-ylcarbonyl]piperazine] | – | > 10000 | – | – | 2 | 0.7 | increased clotting time | – |
| O=C(O)C1CN(S(=O)(=O)c2ccc3cc(Cl)ccc3c2)CCN1C(=O)C1CCN(c2ccncc2)CC1 (stereo not drawn) [Example 63, 2-carboxy-4-(6-chloronaphth-2-ylsulphonyl)-1-[1-(4-pyridyl)piperidin-4-ylcarbonyl]-piperazine] | – | > 10000 | reduced thrombus weight | – | 8 | 4.6 | increased clotting time | 215 to 220 °C (dec.) |
